Measurements: patent US20070078168A1, “PYRIDINE CARBOXYLIC ACID DERIVATIVES AS GLUCOKINASE MODULATORS” (priority 2003, published 2007)

What was measured:
[1] = Plasma protein binding by equilibrium dialysis; type: in vitro ADME; details: rat, 37° C., plasma vs isotonic phosphate buffer pH 7.4, read-out: % free in plasma
Description: (§1) Measurement of Plasma Levels and Plasma Protein Binding Following Oral Administration to Rats
The plasma protein binding of compounds was measured using the equilibrium dialysis technique (W. Lindner et al, J. Chromatography, 1996, 677, 1-28 ). Compound was dialysed at a concentration of 20 μM for 18 hours at 37° C. with plasma and isotonic phosphate buffer pH 7.4 (1 ml of each in the dialysis cell). A Spectrum® 20-cell equilibrium dialyser was used together with Teflon, semi-micro dialysis cells and Spectra/Por®2 membrane discs with a molecular weight cut off 12-14000 Dalton, 47 mm (supplied by PerBio Science UK Ltd, Tattenhall, Cheshire). Plasma and buffer samples are removed following dialysis and analysed using HPLCUV/MS (high performance liquid chromatography with UV and mass spec detection) to give the % free level in plasma.

[2] = Plasma levels following oral administration to rats; type: in vivo; details: rat, oral gavage; including both bound and free; normalised dose of 1 mg compound per kilogram of rat body weight
Description: as §1
Planetary Milled compounds [15 mins, 500 rpm, 5 Zirconium Balls, in a Puluerisette 7 Mill (Glen Creston Ltd, Stanmore, Middlesex, UK)] were suspended in 0.5% HPMC Tween and dosed to High Fat Fed (Research Diets, D12451, ad lib feeding 14 days) Female Alderley Park Zucker or Alderley Park Wistar rats at rate of 5 mls/kg, at doses between 0.3 and 10 mg/kg by oral gavage.
Samples of plasma were obtained either by conscious blood sampling or terminal blood sampling as follows:
Conscious blood sampling (for compound level or blood chemistry)—Intravenous blood samples were taken from tail vein using 600 μl Starstedt Multivette (EDTA) and 22 G needle at the required time point. […]
The reconstituted samples were then analysed using high performance liquid chromatography with tandem mass spectrometry detection (HPLC-MS-MS)”. […]
The concentration of test samples was determined from the ratio of the peak height of the test sample to the peak height of the internal standard. The concentration of the test sample was calculated with reference to a standard curve relating the ratio to the concentration prepared by using known concentrations of test sample added to samples of rat plasma using (3-isopropoxy-5-benzyoxy-benzoyl)amino pyridine 3-carboxylic acid as an internal standard, treated as described above.

For COC[C@H](C)Oc1cc(O[C@@H](C)Cc2ccccc2OC)cc(C(=O)Nc2ccc(C(=O)O)cn2)c1 [Example 2.1, 6-{3-[(1S)-1-methyl-2-(2-methoxyphenyl)ethoxy]-5-[(1S)-2-methoxy-1-methylethoxy]-benzoylamino}-3-pyridine carboxylic acid], the fraction unbound at 18 hours, 20 μM [1] was 0.0042 and the “Peak Blood levels” value [2] was 1.29 µM.
